According to patent US12076432B2, “Method of repairing oxidatively treated hair” (Conopco, Inc., priority 2018, dated 2024):

How the values were obtained:
[1] = Denaturation temperature (Td) by DSC of bleached hair after soak in 1% aqueous N-acetyl amino acid solution; design: Denaturation Temperature Td (n = 3): unit not given here; details: hair soaked 30 minutes in 1% aqueous solution; for Denaturation Temperature Td (n = 3): DSC, no rinse; for Difference from control (Td): vs Control 1 or Control 2 (twice bleached hair), in °C (unit assumed)
Procedure: Hair that has been damaged has internal protein with a reduced denaturation temperature compared to that of virgin hair. The reduction in denaturation temperature is attributed to a degradation of the internal hair cortex proteins.
Hair damage can be measured in different ways. This invention focusses on the structural integrity of hair cortex proteins, as can be determined by Differential Scanning Calorimetry.
(§1) Hair was bleached for 30 min with Platine Precision White Compact Lightening Powder (L'Oreal Professionnel Paris, Paris, France) mixed with 9% cream peroxide, 30 ‘vol’ (Excel GS Ltd, UK) (60 g of powder mixed with 120 g cream peroxide). Hair was then rinsed with water for 2 minutes. This procedure was repeated on the same hair to produce twice bleached hair.
(§2) In the following examples, compositions A-C are comparative examples and 1-6 are in accordance with the invention. The compositions are 1% aqueous solutions of various N-Acetyl amino acids, prepared by adding the N-acetyl amino acid to water with stirring.
In the following experiments, Control 1 and 2 were from two different batches of twice bleached hair. They were dialysed with water before being used.
(§3) Twice bleached dark brown European hair was soaked for 30 minutes in 1% aqueous solutions of various N-Acetyl amino acids. The hair was then removed from the solution. Clippings from a few fibres were then taken and the denaturation temperature (Td) was measured using DSC.

[2] = Denaturation temperature (Td) by DSC of soaked bleached hair after subsequent rinse step; details: for Difference from control (Td): after soak and 30 seconds rinse, vs Control 1 or Control 2; for Td (n = 3): after soak, rinsed in running water for 30 seconds, DSC
Procedure: as §1, §2, §3
The effect of a subsequent rinse step was determined.
(§4) The switches from experiment 1 were rinsed in running water for 30 seconds.

[3] = Denaturation temperature (Td) by DSC of soaked and rinsed bleached hair after wash with base wash; details: after soak; for Difference from control (Td): rinse and wash with 14% SLES, vs Control (DB) or Control 2; for Td (n = 3): rinse and wash with base wash (14% SLES solution), DSC
Procedure: as §1, §2, §3, §4
The rinsed switches of experiment 2 were washed with base wash (14% SLES solution) and DSC performed.
Hair was washed with a cleansing shampoo using the following method:—
The hair fibres were held under running water for 30 seconds, shampoo applied at a dose of 0.1 ml of shampoo per 1 g of hair and rubbed into the hair for 30 seconds. Excess lather was removed by holding under running water for 30 seconds and the shampoo stage repeated. The hair was rinsed under running water for 1 minute.

Row | SMILES | Denaturation Temperature Td (n = 3) [1] | Difference from control (Td) [1] | Difference from control (Td) [2] | Td (n = 3) [2] | Difference from control (Td) [3] | Td (n = 3) [3]
1 | CC(=O)N[C@@H](Cc1c[nH]cn1)C(=O)O [N-Acetyl Histidine] | 148.08 | 2.51 | 1.64 °C | 147.76 | 1.93 °C | 147.65
2 | CC(=O)N[C@@H](C)C(=O)O [N-Acetyl Alanine] | 156.00 | 7.4 | 4.2 °C | 152.99 | 2.76 °C | 151.11
3 | CC(=O)N[C@@H](CCCNC(=N)N)C(=O)O [N-Acetyl Arginine, reference compound] | 148.57 | −0.03 |  |  |  | 
4 | CSCC[C@H](NC(C)=O)C(=O)O [N-Acetyl Methionine] | 153.36 | 7.79 | 3.85 °C | 149.97 | 5.42 °C | 151.14
5 | CC(=O)N[C@@H](CS)C(=O)O [N-Acetyl Cysteine, reference compound] | 149.27 | 0.67 |  |  |  | 
6 | CC(=O)N[C@@H](CCC(N)=O)C(=O)O [N-Acetyl Glutamine] | 155.15 | 6.55 | 1.97 °C | 150.75 | 2.5 °C | 150.85
7 | CC(=O)N[C@@H](CO)C(=O)O [N-Acetyl Serine] | 156.25 | 7.65 | 3.02 °C | 151.80 |  | 
8 | CC(=O)N1CCC[C@H]1C(=O)O [N-Acetyl Proline] | 154.46 | 5.86 | 2.16 °C | 150.95 | 1.08 °C | 149.43
9 | CC(=O)N[C@@H](CCC(=O)O)C(=O)O [N-Acetyl Glutamic acid] | 154.69 | 6.09 | 3.89 °C | 152.67 | 2.9 °C | 151.26
